Test system: male and female Sprague–Dawley rats
Test: 90-day subchronic oral gavage toxicity study
Type: in vivo, rat
Parameters: key to NOEL, absolute liver weight increase / LOEL, absolute liver weight increase / NOEL, relative kidney weight increase / LOEL, relative kidney weight increase / NOEL, absolute kidney weight increase / LOEL, absolute kidney weight increase / NOEL, relative liver weight increase / LOEL, relative liver weight increase: NR: no response, no statistically significant dose-dependent changes
Experimental: Subchronic (90-day) studies were performed in accordance with current U.S. EPA’s Toxic Substances Control Act Good Laboratory Practice (GLP) Standards, with the following two general exceptions to the GLP guidelines: Analysis of the dose formulations was conducted according to RTI-approved Standard Operating Procedures, and corn oil (the vehicle) was not characterized (certificate of analysis from the vendor is available in the appendices to the final reports). Male and female Sprague–Dawley rats (five dose levels plus a control, n = 10/sex/dose group, corn oil vehicle dose volume of 3 mL/kg; oral gavage) were used in these studies, and the rats were euthanized on SD 91. The dose levels for PFHI were 0, 12.5, 25, 50, 100, and 200 mg/kg-day. The dose levels for MHFPK were 0, 18.8, 37.5, 75, 150, and 300 mg/kg-day. The dose levels for PFNAC were 0, 0.1, 0.3, 1.0, 3.0, and 10 mg/kg-day for male rats and 0, 0.3, 1.0, 3.0, 10, and 30 mg/kg-day for female rats. For CTFPA, the dose levels were 0, 1.9, 3.8. 7.5, 15, and 30 mg/kg-day for male rats and 0, 6.3, 12.5, 25, 50, and 100 mg/kg-day for female rats. For each PFAS, three batches of dosing solution were prepared. The time between the batch preparation of the dosing solutions ranged between 29 and 39 days. Blood samples were collected from all the rats at termination for serum chemistry, hematology, coagulation, and the analysis of the parent PFAS chemical in the plasma. In vivo data collection and further detail on the endpoints examined postmortem are described below.
The rats were observed twice daily for morbidity and mortality throughout the study period. At least once prior to randomization to test groups and weekly thereafter, the rats were physically examined, and bodyweights were obtained. Feed consumption was quantified weekly starting on SD 1.
Neurotoxicity was evaluated using the functional observational battery (FOB) and measuring locomotor activity (LMA) 2–4 h post dosing on SDs 78–80 and 80–84, respectively. For both the 14- and 90-day studies, an ophthalmologic examination was conducted prior to randomization and near the end of the study, using indirect ophthalmoscopy and slit–lamp biomicroscopy (as needed) after the administration of a mydriatic solution.
Hematology, biochemistry, and coagulation endpoints were measured at the termination of the study. A Siemens Advia 2120i hematology analyzer (Siemens Healthineers, Erlangen, Germany) was used to measure (or calculate) the parameters related to the complete blood count, leukocyte differential count, and reticulocyte count. The hematology parameters are listed and described in Table 2. The prothrombin time […] and activated partial thromboplastin time (APTT) were measured using an Instrumentation Laboratory (Bedford, MA, USA) ACL Elite Pro coagulation analyzer (laser–nephelometric centrifugal method).
At necropsy, the rats were visually examined for external abnormalities and organ weights (absolute and relative to the BW and brain weight), which were recorded (paired organs weighed together). The tissues were preserved in 10% neutral buffered formalin (NBF), except for the ocular tissues, testes, and epididymides, which were preserved in modified Davidson’s fixative and later transferred to 10% NBF. Bone marrow smears were prepared from the femurs, and the slides were air-dried, fixed in methanol, stained, and stored at room temperature for possible future evaluation. The preserved tissues were embedded in paraffin, sectioned, stained with hematoxylin and eosin, and examined by a board-certified veterinary pathologist.
Statistical analysis was performed using Provantis™ Version 10 or greater (Instem LSS, Limited; Stone, Staffordshire, UK). Differences among the treatment groups compared to the control were evaluated using one-way analysis of variance (ANOVA) if the underlying assumptions of a normal distribution (Shapiro–Wilk test) and the homogeneity of the variance (Levene’s test) were satisfied. […]

What does the source list for `FC(F)(F)C(F)(F)C(F)(F)C(F)(F)CCI` [PFHI, 1H,1H,2H,2H-Perfluorohexyl iodide]?
Bodyweight (BW) and bodyweight gain (90-day, both sexes, all doses): None in females; dose-dependent reduced BW changes in males in all the dose groups, but BW gain on SDs 1-90 was not significantly affected; Clinical observations (90-day, both sexes, all doses): None; Coagulation endpoints (90-day, both sexes, all doses): Dose-dependent minimal prolongations in PT (in males at ≥12.5 mg/kg-day and in females at ≥25 mg/kg-day; Feed consumption (90-day, both sexes, all doses): No changes in males; increased feed consumption in females at 25, 50, and 100 mg/kg-day but not at 200 mg/kg-day; Functional observational battery (90-day, both sexes, all doses): No changes; Gross lesions (90-day, both sexes, all doses): None considered as PFHI related; Hematology (90-day, both sexes, all doses): Minimal decreases in reticulocytes in males at ≥50 mg/kg-day; minimal increases in MPV in females and sporadically in males at 200 mg/kg-day and in both sexes at 50 and 100 mg/kg-day; Histopathology (90-day, both sexes, all doses): The kidney and liver ^5 of males at ≥100 mg/kg-day and the liver of females at 200 mg/kg-day; Locomotor activity (90-day, both sexes, all doses): No effects; Morbidity and mortality (90-day, both sexes, all doses): None; Ophthalmology (90-day, both sexes, all doses): No ocular lesions; Organ weight changes (90-day, both sexes, all doses): Mean absolute and/or relative dose-dependent organ weight increases in the liver of females at ≥100 mg/kg-day and males at ≥25 mg/kg-day and kidney weight increases only in males at ≥100 mg/kg-day ^5; BMD10, absolute liver weight increase (female): 57.8 mg/kg-day; BMDL, absolute liver weight increase (female): 8.1 mg/kg-day; LOEL, absolute kidney weight increase (female): NR; LOEL, absolute liver weight increase (female): 200 mg/kg-day; LOEL, relative kidney weight increase (female): NR; LOEL, relative liver weight increase (female): 100 mg/kg-day; NOEL, absolute kidney weight increase (female): NR; NOEL, absolute liver weight increase (female): 100 mg/kg-day; NOEL, relative kidney weight increase (female): NR; NOEL, relative liver weight increase (female): 50 mg/kg-day; % BW Gain (female, 12.5 mg/kg-day): 61.51%; % Diff, % BW Gain (female, 12.5 mg/kg-day): 1.61%; % Diff, Total BW change (female, 12.5 mg/kg-day): 1.06%; % Diff, Total Food Consumed (female, 12.5 mg/kg-day): 0.12%; A/G (female, 12.5 mg/kg-day): 1.09±0.05 ratio; ALB (female, 12.5 mg/kg-day): 4.28 ± 0.37 g/dL; ALPi (female, 12.5 mg/kg-day): 42.8±13.0 U/L; APTT (female, 12.5 mg/kg-day): 18.80 s; BUN (female, 12.5 mg/kg-day): 16.8 ± 2.7 mg/dL; CHOL (female, 12.5 mg/kg-day): 110.5 ± 32.7 mg/dL; GLOB (female, 12.5 mg/kg-day): 3.94 ± 0.25 g/dL; GLUC (female, 12.5 mg/kg-day): 138.0 ± 29.9 mg/dL; HCT (female, 12.5 mg/kg-day): 46.90±1.85%; HGB (female, 12.5 mg/kg-day): 14.91 ± 0.54 g/dL; Kidney Weight (female, 12.5 mg/kg-day): 1.83 g; Kidney/Body Weight (female, 12.5 mg/kg-day): 0.58%; Kidney/Brain Weight (female, 12.5 mg/kg-day): 89.5%; Liver Weight (female, 12.5 mg/kg-day): 8.53 g; Liver/Body Weight (female, 12.5 mg/kg-day): 2.68%; Liver/Brain Weight (female, 12.5 mg/kg-day): 416%; MPV (female, 12.5 mg/kg-day): 7.10 ± 0.30 fL; PT (female, 12.5 mg/kg-day): 13.34 s; Total BW change (female, 12.5 mg/kg-day): 124.60 g; Total Food Consumed (female, 12.5 mg/kg-day): 1474 g; % BW Gain (female, 25 mg/kg-day): 60.67%; % Diff, % BW Gain (female, 25 mg/kg-day): 0.22%; % Diff, Total BW change (female, 25 mg/kg-day): 1.70%; % Diff, Total Food Consumed (female, 25 mg/kg-day): 7.27%; A/G (female, 25 mg/kg-day): 1.07±0.11 ratio; ALB (female, 25 mg/kg-day): 4.02 ± 0.39 g/dL; ALPi (female, 25 mg/kg-day): 54.9±21.9 U/L; APTT (female, 25 mg/kg-day): 18.59 s; BUN (female, 25 mg/kg-day): 16.2 ± 2.1 mg/dL; CHOL (female, 25 mg/kg-day): 114.9 ± 14.1 mg/dL; GLOB (female, 25 mg/kg-day): 3.78 ± 0.16 g/dL; GLUC (female, 25 mg/kg-day): 153.4 ± 30.6 mg/dL; HCT (female, 25 mg/kg-day): 48.01±1.96%; HGB (female, 25 mg/kg-day): 15.38 ± 0.54 g/dL; Kidney Weight (female, 25 mg/kg-day): 1.83 g; Kidney/Body Weight (female, 25 mg/kg-day): 0.57%; Kidney/Brain Weight (female, 25 mg/kg-day): 88.2%; Liver Weight (female, 25 mg/kg-day): 8.66 g; Liver/Body Weight (female, 25 mg/kg-day): 2.71%; Liver/Brain Weight (female, 25 mg/kg-day): 417%; MPV (female, 25 mg/kg-day): 7.32 ± 0.30 fL; PT (female, 25 mg/kg-day): 13.51 s; Total BW change (female, 25 mg/kg-day): 125.38 g; Total Food Consumed (female, 25 mg/kg-day): 1579 g; % BW Gain (female, 50 mg/kg-day): 65.42%; % Diff, % BW Gain (female, 50 mg/kg-day): 8.07%; % Diff, Total BW change (female, 50 mg/kg-day): 7.25%; % Diff, Total Food Consumed (female, 50 mg/kg-day): 8.31%; A/G (female, 50 mg/kg-day): 1.09±0.09 ratio; ALB (female, 50 mg/kg-day): 4.27 ± 0.46 g/dL; ALPi (female, 50 mg/kg-day): 43.7±5.5 U/L; APTT (female, 50 mg/kg-day): 20.46 s; BUN (female, 50 mg/kg-day): 15.7 ± 2.2 mg/dL; CHOL (female, 50 mg/kg-day): 119.7 ± 25.4 mg/dL; GLOB (female, 50 mg/kg-day): 3.91 ± 0.26 g/dL; GLUC (female, 50 mg/kg-day): 157.1 ± 16.7 mg/dL; HCT (female, 50 mg/kg-day): 47.80±2.45%; HGB (female, 50 mg/kg-day): 15.23 ± 0.72 g/dL; Kidney Weight (female, 50 mg/kg-day): 1.85 g; Kidney/Body Weight (female, 50 mg/kg-day): 0.57%; Kidney/Brain Weight (female, 50 mg/kg-day): 93.9%; Liver Weight (female, 50 mg/kg-day): 8.92 g; Liver/Body Weight (female, 50 mg/kg-day): 2.76%; Liver/Brain Weight (female, 50 mg/kg-day): 454%; MPV (female, 50 mg/kg-day): 7.47 ± 0.44 fL; PT (female, 50 mg/kg-day): 13.48 s; Total BW change (female, 50 mg/kg-day): 132.23 g; Total Food Consumed (female, 50 mg/kg-day): 1595 g; % BW Gain (female, 100 mg/kg-day): 62.41%; % Diff, % BW Gain (female, 100 mg/kg-day): 3.09%; % Diff, Total BW change (female, 100 mg/kg-day): 5.03%; % Diff, Total Food Consumed (female, 100 mg/kg-day): 13.5%; A/G (female, 100 mg/kg-day): 1.08±0.06 ratio; ALB (female, 100 mg/kg-day): 4.32 ± 0.36 g/dL; ALPi (female, 100 mg/kg-day): 49.7±18.4 U/L; APTT (female, 100 mg/kg-day): 17.57 s; BUN (female, 100 mg/kg-day): 16.7 ± 2.6 mg/dL; CHOL (female, 100 mg/kg-day): 122.7 ± 15.6 mg/dL; GLOB (female, 100 mg/kg-day): 4.00 ± 0.27 g/dL; GLUC (female, 100 mg/kg-day): 153.8 ± 19.2 mg/dL; HCT (female, 100 mg/kg-day): 46.45±1.01%; HGB (female, 100 mg/kg-day): 14.77 ± 0.32 g/dL; Kidney Weight (female, 100 mg/kg-day): 1.84 g; Kidney/Body Weight (female, 100 mg/kg-day): 0.58%; Kidney/Brain Weight (female, 100 mg/kg-day): 89.7%; Liver Weight (female, 100 mg/kg-day): 9.17 g; Liver/Body Weight (female, 100 mg/kg-day): 2.85%; Liver/Brain Weight (female, 100 mg/kg-day): 447%; MPV (female, 100 mg/kg-day): 7.34 ± 0.51 fL; PT (female, 100 mg/kg-day): 13.79 s; Total BW change (female, 100 mg/kg-day): 129.49 g; Total Food Consumed (female, 100 mg/kg-day): 1671 g; % BW Gain (female, 200 mg/kg-day): 53.53%; % Diff, % BW Gain (female, 200 mg/kg-day): -11.58%; % Diff, Total BW change (female, 200 mg/kg-day): -11.94%; % Diff, Total Food Consumed (female, 200 mg/kg-day): 6.33%; A/G (female, 200 mg/kg-day): 1.15±0.03 ratio; ALB (female, 200 mg/kg-day): 4.69 ± 0.33 g/dL; ALPi (female, 200 mg/kg-day): 46.9±15.3 U/L; APTT (female, 200 mg/kg-day): 19.34 s; BUN (female, 200 mg/kg-day): 18.0 ± 3.3 mg/dL; CHOL (female, 200 mg/kg-day): 154.8 ± 35.9 mg/dL; GLOB (female, 200 mg/kg-day): 4.10 ± 0.33 g/dL; GLUC (female, 200 mg/kg-day): 155.2 ± 21.4 mg/dL; HGB (female, 200 mg/kg-day): 14.58 ± 0.80 g/dL; Kidney Weight (female, 200 mg/kg-day): 1.83 g; Kidney/Body Weight (female, 200 mg/kg-day): 0.61%; Kidney/Brain Weight (female, 200 mg/kg-day): 91.3%; Liver Weight (female, 200 mg/kg-day): 9.65 g; Liver/Body Weight (female, 200 mg/kg-day): 3.20%

Source: PMC12298827, “Subchronic Toxicities of Four Per- and Polyfluoroalkyl Substances (PFASs) by Oral Exposure in Sprague–Dawley Rats” (Toxics, 2025)
